Values quoted from earlier work in patent EP0495131B1, “AGENT FOR PREVENTING AND TREATING HEPATITIS” (priority 1990, dated 1992).

Tested on: hepatitis, especially B-type hepatitis
Conditions: percentage of patients in which antigen is converted into negative and antibody into positive; anti-virus agents for hepatitis

SMILES | rate of the seroconversion (SC rate)
Nc1ncnc2c1ncn2[C@@H]1O[C@H](CO)[C@@H](O)[C@@H]1O [Ara-A, adenine arabinoside] | 0-30%
Nc1nc2c(ncn2COCCO)c(=O)[nH]1 [acyclovir] | about 27%
